Results published in patent US4585784A, “Pyrrole-2-acetylamino acid derivative compounds” (McNeilab, Inc., priority 1983, dated 1986).
Where two headings read alike, the source gives them in different places.

What was measured:
[1] = gastric ulceration test (ability to induce gastric ulceration, 4 days oral dosing); details: in vivo; for selectivity ratio: therapeutic index in respect to gastric ulceration, * = significantly different from parent compound p ≤0.05, read-out: AII (antiinflammatory index, UD50/ED50)
Protocol: In addition to their antiinflammatory activity, the compounds were evaluated for their ability to induce gastric ulceration since gastric irritation is the most significant side effect following administration of prostaglandin biosynthesis inhibitors. As described by Wong et al., the dose (UD50 mg/kg/day) required to produce 50 percent ulcerogenic response following 4 days of oral dosing with test drug was determined. The results are shown in Table I. As described by Wong et al., a therapeutic index in respect to gastric ulceration, the "antiinflammatory index (AII)" defined as UD50 /ED50, was determined.

[2] = rat adjuvant arthritis test (antiinflammatory activity); assay type: in vivo, Female Wistar/Lewis rats; details: oral, daily for 4 days, inhibition of noninjected hind paw volume vs controls, compounds given as aqueous solutions of sodium salts
Protocol: The antiinflammatory activity of the compounds of the instant invention was measured using the rat adjuvant arthritis test [S. Wong, J. F. Gardocki and T. P. Pruss, J. Pharmacol. and Exp. Ther. 185, 127 (1973)]. Female Wistar/Lewis rats were given an injection of heat-killed Mycobacterium butyricum in light mineral oil. After 11 days, the animals which had developed an arthritic condition were selected and given daily oral doses of test drug for 4 days. Paw volumes were measured and the percent inhibition of the noninjected hind paw as compared to controls was calculated. The results (Table I) are expressed as ED50 (mg/kg/day).

[3] = in vivo; cited from earlier work
[4] = test system: prostaglandin biosynthesis; details: cited from earlier work

## Cc1cc(CC(=O)N[C@@H](CCC(N)=O)C(=O)O)n(C)c1C(=O)c1ccc(Cl)cc1 [XI, N-{[5-(4-chlorobenzoyl)-1,4-dimethyl-1H-pyrrol-2-yl]-acetyl}-glutamine]
[1]
  TD50 at 96 h: 33.4 mg/kg
  selectivity ratio: 46.5
[2]; 96 h, read-out: ED50
  ED50: 0.72 mg/kg

## Cc1cc(CC(=O)N[C@@H](CCC(=O)O)C(=O)O)n(C)c1C(=O)c1ccc(Cl)cc1 [VIII (3), N--{[5-(4-chlorobenzoyl)-1,4-dimethyl-1H--pyrrol-2-yl]-acetyl}-glutamic acid]
[1]
  AII (antiinflammatory index, UD50/ED50): 68.9
[1]; 96 h
  UD50: 37.0 mg/kg/day
[2]
  ED50: 0.54 mg/kg/day

## Cc1cc(CC(=O)NC(C)C(=O)O)n(C)c1C(=O)c1ccc(Cl)cc1 (centres unmarked) [VIII (1), N--{[5-(4-chlorobenzoyl)-1,4-dimethyl-1H--pyrrol-2-yl]-acetyl}-alanine]
[1]
  TD50 at 96 h: 25.4 mg/kg
  selectivity ratio: 37.6
[2]; 96 h, read-out: ED50
  ED50: 0.67 mg/kg

## Cc1cc(CC(=O)NCC(=O)O)n(C)c1C(=O)c1ccc(Cl)cc1 [Example VII, N-{[5-(4-chlorobenzoyl)-1,4-dimethyl-1H-pyrrol-2-yl]-acetyl}-glycine]
[1]
  TD50 at 96 h: 21.1 mg/kg
  selectivity ratio: 34.4
[2]; 96 h, read-out: ED50
  ED50: 0.61 mg/kg

## Cc1cc(CC(=O)O)n(C)c1C(=O)c1ccc(Cl)cc1 [zomepirac, [5-(4-chlorobenzoyl)-1,4-dimethyl-1H-pyrrol-2-yl]acetic acid, reference compound]
[3]
  side effect (in words): gastrointestinal irritation
[1]
  TD50 at 96 h: 13.8 mg/kg
  selectivity ratio: 27.2
[4]
  mode of action (in words): inhibition of prostaglandin biosynthesis
[2]; 96 h, read-out: ED50
  ED50: 0.51 mg/kg

## Cc1cc(CC(=O)NC(CC(=O)O)C(=O)O)n(C)c1C(=O)c1ccc(Cl)cc1 (centres unmarked) [VIII (4), N--{[5-(4-chlorobenzoyl)-1,4-dimethyl-1H--pyrrol-2-yl]-acetyl}-aspartic acid]
[1]
  TD50 at 96 h: 71 mg/kg
  selectivity ratio: 93.1
[2]; 96 h, read-out: ED50
  ED50: 0.76 mg/kg

## CSCCC(NC(=O)Cc1cc(C)c(C(=O)c2ccc(Cl)cc2)n1C)C(=O)O (centres unmarked) [VIII (2), N--{[5-(4-chlorobenzoyl)-1,4-dimethyl-1H--pyrrol-2-yl]-acetyl}-methionine]
[1]
  TD50 at 96 h: 43.7 mg/kg
  selectivity ratio: 46.9
[2]; 96 h, read-out: ED50
  ED50: 0.93 mg/kg

## Cc1cc(CC(=O)NC(CCCCN)C(=O)O)n(C)c1C(=O)c1ccc(Cl)cc1 (centres unmarked) [X, N^2 -{[5-(4-chlorobenzoyl)-1,4-dimethyl-1H-pyrrol-2-yl]-acetyl}-lysine-hydrate(5:8)]
[1]
  TD50 at 96 h: 35.1 mg/kg
  selectivity ratio: 54.8
[2]; 96 h, read-out: ED50
  ED50: 0.64 mg/kg
